Read-outs that look alike come from different tables or passages of the source.

Results on 25 compounds are retold here after patent publication US11028090B2 (Dong Wha Pharm. Co., Ltd., priority 2017, dated 2021).

Assay [1] relates to thymus cancer cells (Ty-82 cells). Put plainly: Cytotoxicity to thymus cancer cells (Ty-82 cells), WST-1. The following applies: Homo sapiens, TY82, 72 h.
Assay [2] has as its system acute myelogenous leukemia cells (MV-4-11 cells). Put plainly: Cytotoxicity to acute myelogenous leukemia cells (MV-4-11 cells), CCK-8. The following applies: Homo sapiens, MV4-11, 72 h.
Experimental: The following experiment was performed to evaluate the cytotoxicity of [1,2,4]triazolo[4,3-a]quinoxaline derivative according to the present invention to acute myelogenous leukemia cells (MV-4-11 cells).
Acute myelogenous leukemia cells (MV-4-11 cells) were distributed in a 96 well plate at the density of 5×10^3 cells/well. The plated cells were treated with the compounds of the present invention dissolved in DMSO at the different concentrations ranging from 0.01 μM to 10 μM. 72 hours later, the activities of the compounds were determined using CCK-8 reagent.
The target of assay [3] is BRD4 (BD1+BD2) bromodomain (Homo sapiens (Human), UniProt O60885). Put plainly: BRD4 binding inhibition (AlphaScreen, GST-BRD4 vs tetraacetylated histone H4 peptide). An outline of the steps:
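GST-BRD4 (BD1+BD2) and biotinylated tetraacetyl-histone H4 peptide, each at 100 nM in HEPES pH 7.4 buffer with BSA and DTT, were combined with compound. Glutathione acceptor and streptavidin donor beads were added, then incubated 30 min at room temperature in the dark. Read-out was AlphaScreen signal.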

Where [4] appears, read: read-out: Ty-82 Cytotoxicity IC50.
Where [5] appears, read: read-out: MV-4-11 Cytotoxicity IC50.
[6] abbreviates: GST-BRD4 (BD1+BD2) / biotinylated acetyl-histone H4 (Lys5,8,12,16) peptide, read-out: IC50, BRD4 binding inhibition.
[7] abbreviates: GST-BRD4 (BD1+BD2) vs biotinylated acetyl-histone H4 peptide, AlphaScreen, read-out: BRD4 IC50.
Where [8] appears, read: read-out: IC50, cytotoxicity against thymus cancer cells.
[9] abbreviates: read-out: IC50, cytotoxicity against acute myelogenous leukemia cells.

As for `Cc1nnc2c(NCCCCNC(=O)c3ccccc3)nc3ccccc3n12` [Example 11, N-[4-(1-methyl-[1,2,4]triazolo[4,3-a]quinoxaline-4-ylamino)-butyl]-benzamide], the IC50 in assay [1] (setting [4]) was determined as 950 nM; in assay [2] (setting [5]), 710 nM.
For `COc1cc2nc(NCCCCNC(=O)OC(C)(C)C)c3nnc(C)n3c2cc1OC` [Example 57, [4-(7,8-dimethoxy-1-methyl-[1,2,4]triazolo[4,3-a]quinoxaline-4-ylamino)-butyl]-carbamic acid-tert-butylester], the IC50 in assay [3] (setting [6]) was no more than 50 nM; in assay [3] (setting [7]), 20 nM; in assay [1] (setting [4]), 740 nM; in assay [2] (setting [5]), 760 nM.
`COc1cc2nc(NCCCCNC(=O)C(C)(C)C)c3nnc(C)n3c2cc1OC` [Example 59, N-[4-(7,8-dimethoxy-1-methyl-[1,2,4]triazolo[4,3-a]quinoxaline-4-ylamino)-butyl]-2,2-dimethyl-propionamide]: the IC50 in assay [3] (setting [6]) is no more than 50 nM; in assay [3] (setting [7]) it was 34 nM; in assay [1] (setting [8]), no more than 500 nM; in assay [1] (setting [4]) it was 420 nM; in assay [2] (setting [5]), 310 nM.
As for `COc1cc2nc(NCCCCNC(=O)OC(C)C)c3nnc(C)n3c2cc1OC` [Example 60, [4-(7,8-dimethoxy-1-methyl-[1,2,4]triazolo[4,3-a]quinoxaline-4-ylamino)-butyl]-carbamic acid isopropylester], the IC50 in assay [3] (setting [6]) is no more than 50 nM; in assay [3] (setting [7]) it was 12 nM; in assay [1] (setting [8]), no more than 500 nM; in assay [1] (setting [4]), 120 nM; in assay [2] (setting [9]), no more than 200 nM; in assay [2] (setting [5]), 10 nM.
Regarding `COc1cc2nc(NCCCCNC(=O)OCC(C)C)c3nnc(C)n3c2cc1OC` [Example 62, [4-(7,8-dimethoxy-1-methyl-[1,2,4]triazolo[4,3-a]quinoxaline-4-ylamino)-butyl]-carbamic acid isobutylester], the IC50 in assay [3] (setting [6]) is no more than 10 nM; in assay [3] (setting [7]) it was 7 nM; in assay [1] (setting [8]), no more than 500 nM; in assay [1] (setting [4]), 290 nM; in assay [2] (setting [9]) it was no more than 200 nM; in assay [2] (setting [5]) it was 120 nM.
`COc1cccc2c1nc(NCCCCNC(=O)OCC(C)C)c1nnc(C)n12` [Example 120, N-[4-(6-methoxy-1-methyl-[1,2,4]triazolo[4,3-a]quinoxaline-4-ylamino)-butyl]-carbamic acid isobutylester]: the IC50 in assay [3] (setting [6]) is no more than 50 nM; in assay [3] (setting [7]), 34 nM; in assay [1] (setting [4]) it was 620 nM.
As to `COc1ccc2nc(NCCCCNC(=O)c3ccccc3)c3nnc(C)n3c2c1` [Example 127, N-[4-(8-methoxy-1-methyl-[1,2,4]triazolo[4,3-a]quinoxaline-4-ylamino)-butyl]-benzamide], the IC50 was no more than 50 nM in assay [3] (setting [6]), 46 nM in assay [3] (setting [7]) and 620 nM in assay [1] (setting [4]).
The corresponding values for `COc1ccc2nc(NCCCCNC(=O)c3ccc(C)nc3Cl)c3nnc(C)n3c2c1` [Example 129] are no more than 50 nM, 17 nM and 830 nM.
Regarding `COc1c(C)ccc2c1nc(NCCCCNC(=O)OC(C)C)c1nnc(C)n12` [Example 133, [4-(6-methoxy-1,7-dimethyl-[1,2,4]triazolo[4,3-a]quinoxaline-4-ylamino)-butyl]-carbamic acid isopropylester], the IC50 in assay [3] (setting [6]) was no more than 50 nM; in assay [3] (setting [7]) it was 34 nM; in assay [1] (setting [4]) it was 880 nM.
The corresponding values for `COCCOc1cc2nc(NCCCCNC(=O)c3ccccc3Cl)c3nnc(C)n3c2cc1OCCOC` [Example 171, N-{4-[7,8-bis-(2-methoxy-ethoxy)-1-methyl-[1,2,4]triazolo[4,3-a]quinoxaline-4-ylamino]-butyl}-2-chloro-benzamide] are no more than 50 nM, 26 nM and 580 nM.
The corresponding values for `COC(=O)c1ccc2c(c1)nc(NCCCCNC(=O)OC(C)(C)C)c1nnc(C)n12` [Example 197, 4-(4-tert-butoxycarbamoylamino-butylamino)-1-methyl-[1,2,4]triazolo[4,3-a]quinoxaline-7-carboxylic acid methylester] are no more than 50 nM, 28 nM and 650 nM.
The corresponding values for `Cc1nnc2c(NCCCCNC(=O)OC(C)(C)C)nc3cc(C(=O)NC(C)C)ccc3n12` [Example 202, [4-(7-isopropylcarbamoyl-1-methyl-[1,2,4]triazolo[4,3-a]quinoxaline-4-ylamino)-butyl]-carbamic acid-tert-butylester] are no more than 50 nM, 44 nM and 640 nM.
Take `Cc1nnc2c(NCCCCNC(=O)c3ccccc3)nc3cc(C(=O)NC(C)C)ccc3n12` [Example 205, 4-(4-benzoylamino-butylamino)-1-methyl-[1,2,4]triazolo[4,3-a]quinoxaline-7-carboxylic acid isopropylamide]: the IC50 in assay [3] (setting [7]) was 75 nM; in assay [1] (setting [4]) it was 550 nM.
For `Cc1nnc2c(NCCCCNC(=O)OC(C)(C)C)nc3cc(C(=O)NCc4ccccc4)ccc3n12` [Example 210, [4-(7-benzylcarbamoyl-1-methyl-[1,2,4]triazolo[4,3-a]quinoxaline-4-ylamino)-butyl]-carbamic acid-tert-butylester], the results for the IC50 in assay [3] (setting [6]), in assay [3] (setting [7]) and in assay [1] (setting [4]) were no more than 50 nM, 18 nM and 760 nM, respectively.
The corresponding values for `Cc1nnc2c(NCCCCNC(=O)OC(C)(C)C)nc3cc(C(=O)Nc4ccccc4)ccc3n12` [Example 212, [4-(1-methyl-7-phenylcarbamoyl-[1,2,4]triazolo[4,3-a]quinoxaline-4-ylamino)-butyl]-carbamic acid-tert-butylester] are no more than 50 nM, 35 nM and 840 nM.
Consider `Cc1nnc2c(NCCCCNC(=O)OC(C)(C)C)nc3cc(NC(=O)C(C)C)ccc3n12` [Example 246, [4-(7-isobutyramido-1-methyl-[1,2,4]triazolo[4,3-a]quinoxaline-4-ylamino)-butyl]-carbamic acid-tert-butylester], for which the concentration for half-maximal inhibition (IC50) in assay [3] (setting [6]) was no more than 50 nM; in assay [3] (setting [7]), 23 nM; in assay [1] (setting [8]) it was no more than 500 nM; in assay [1] (setting [4]), 490 nM.
Consider `Cc1nnc2c(NCCCCNC(=O)C(C)(C)C)nc3cc(NC(=O)C(C)C)ccc3n12` [Example 247, N-[4-(7-isobutyramido-1-methyl-[1,2,4]triazolo[4,3-a]quinoxaline-4-ylamino)-butyl]-2,2-dimethyl-propionamide], for which the IC50 in assay [3] (setting [6]) was no more than 50 nM; in assay [3] (setting [7]) it was 31 nM; in assay [1] (setting [8]), no more than 500 nM; in assay [1] (setting [4]) it was 400 nM.
For `Cc1nnc2c(NCCCCNC(=O)c3ccccc3)nc3cc(NC(=O)C(C)C)ccc3n12` [Example 248, N-[4-(7-isobutyramido-1-methyl-[1,2,4]triazolo[4,3-a]quinoxaline-4-ylamino)-butyl]-benzamide], the IC50 is 54 nM in assay [3] (setting [7]) and 510 nM in assay [1] (setting [4]).
`CC(=O)Nc1ccc2c(c1)nc(NCCCCNC(=O)OC(C)(C)C)c1nnc(C)n12` [Example 249, [4-(7-acetylamino-methyl-[1,2,4]triazolo[4,3-a]quinoxaline-4-ylamino)-butyl]-carbamic acid-tert-butylester]: the IC50 was no more than 50 nM in assay [3] (setting [6]), no more than 500 nM in assay [1] (setting [8]) and 400 nM in assay [1] (setting [4]).
Turning to `CC(=O)Nc1ccc2c(c1)nc(NCCCCNC(=O)C(C)(C)C)c1nnc(C)n12` [Example 250, N-[4-(7-acetylamino-methyl-[1,2,4]triazolo[4,3-a]quinoxaline-4-ylamino)-butyl]-2,2-dimethyl-propionamide], the half-inhibitory concentration (IC50) in assay [3] (setting [6]) was no more than 50 nM; in assay [1] (setting [8]), no more than 500 nM; in assay [1] (setting [4]), 300 nM.
Regarding `CC(=O)Nc1ccc2c(c1)nc(NCCCCNC(=O)c1ccccc1)c1nnc(C)n12` [Example 251, N-[4-(7-acetylamino-methyl-[1,2,4]triazolo[4,3-a]quinoxaline-4-ylamino)-butyl]-benzamide], the IC50 in assay [3] (setting [6]) was no more than 50 nM; in assay [1] (setting [4]) it was 680 nM.
As for `COc1ccc2c(c1)nc(NCCCCNC(=O)C(C)(C)C)c1nnc(C)n12` [Example 277, N-[4-(7-methoxy-1-methyl-[1,2,4]triazolo[4,3-a]quinoxaline-4-ylamino)-butyl]-2,2-dimethyl-propionamide], the IC50 turned out to be 930 nM in assay [1] (setting [4]) and 550 nM in assay [2] (setting [5]).
`COc1cc2nc(NCCCCNC(=O)OC(C)(C)C)c3nnc(C)n3c2cc1C` [Example 464, [4-(7-methoxy-1,8-dimethyl-[1,2,4]triazolo[4,3-a]quinoxaline-4-ylamino)-butyl]-carbamic acid-tert-butylester]: the IC50 in assay [3] (setting [7]) amounted to 61 nM; in assay [1] (setting [4]), 790 nM.
For the compound `COc1cc2nc(NCCCCNC(=O)C(C)(C)C)c3nnc(C)n3c2cc1C` [Example 466], the IC50 in assay [1] (setting [8]) was no more than 500 nM; in assay [1] (setting [4]), 340 nM; in assay [2] (setting [9]), no more than 200 nM; in assay [2] (setting [5]) it was 83 nM.
Regarding `Cc1nnc2c(NCCCCC(=O)NCC(C)C)nc3ccccc3n12` [Example 660, 5-(1-methyl-[1,2,4]triazolo[4,3-a]quinoxaline-4-ylamino)-pentanoic acid isobutylamide], the IC50 in assay [3] (setting [6]) was no more than 50 nM; in assay [3] (setting [7]), 36 nM; in assay [1] (setting [4]) it was 840 nM.
